Assays:
db/db mice [1] = assay: Antihyperglycemic activity in db/db mice; format: in vivo, mouse (C57BL/KsBom-db); details: for % Fall in blood glucose levels 6 days / % Fall in blood glucose levels 10 days: db/db mice; for % Fall in blood glucose levels 6 days: day 6 postprandial protocol; for % Fall in blood glucose levels 10 days: day 10 OGTT, glucose 3 gm/kg
Text: (§1) The db/db mouse is a well-characterized model of […]. The background for the db/db mouse is the C57BL/Ks strain. The major deficiency of the C57BL/KsBom-db mouse (db/db) is lack of a functional leptin receptor. This leads to defective leptin signaling and a complete lack of feedback from leptin. […] The db/db mouse develops NIDDM from around week 10. The disease is stable until week 20, where destruction of pancreatic β-cells can be recognized clinically as decreasing levels of plasma insulin and very severe hyperglycemia. The male mice are more diabetic than female and will normally die earlier. The advantage of using male mice for experimental purposes is that the fluctuations in plasma parameters are less than in the females where the estrogen cycle affects the clinical diabetes mellitus. The optimal age of db/db mice used for experiments will be from week 12 to 18 when they have developed NIDDM with diabetic dyslipidemia but still have functional β-cells in the pancreas. C57BL/KsBom-db mice 12-18 weeks, 40-50 g bred in the animal house of CDRI, Lucknow. 10 male mice were used in the experiments. The mice were housed in groups of 5 individuals in a room controlled for temperature (23±2° C.) and 12/12 hours light/dark cycle (lights on at 6.00 am). Body weight was measured daily from day 1 to day 10. All animals had free access to fresh water and to normal chow except on the days of the postprandial protocol day 6 and during the overnight fast before the OGTT on day 10. Blood glucose was checked every morning up till day 5. On day 6 postprandial protocol was employed, in this method blood glucose was checked at −0.30 min and 0 h. Test compounds were given to the treatment group whereas control group received only gum acacia (1.0%); the blood glucose was again checked at 1, 2, 3, 4 and 6 h post test compound treatment. Finally on day 10 an oral glucose tolerance test (OGTT) was performed after an overnight fasting. Blood glucose was measured at −0.30 min and test drugs were fed, blood glucose was again measured at 0.0 min post treatment, at this juncture glucose solution was given at a dose of 3 gm/kg to all the groups including control group; the profile of blood glucose was checked at 30 min, 60 min, 90 min and 120 min post glucose administration. Quantitative glucose tolerance of each animal was calculated by Area Under Curve (AUC) method (Prism Software). Comparing the AUC of experimental and control groups determined the percentage antihyperglycemic activity. Statistical comparison was made by Dunnett's test.

db/db mice [2] = assay: Antidyslipidemic activity in db/db mice; format: in vivo, mouse (C57BL/KsBom-db); details: for % Fall in lipid levels HDL: serum HDL-cholesterol; for % Fall in lipid levels Chol.: serum cholesterol; for % Fall in lipid levels TG: serum triglycerides
Text: as §1
Cholesterol and triglycerides were estimated using the same procedures as given above.
HDL-Cholesterol was estimated using the kit provided by the Roche Diagnostics. Cholestest N HDL is a liquid reagent that directly measures the HDL-cholesterol concentration in serum by a new method that is based on the selective solubilising effect of proprietary detergent to the different lipoproteins. In the assay system, only HDL is solubilised by a special detergent; other lipoproteins are not disturbed. After HDL is selectively disrupted, HDL cholesterol is measured enzymatically (Gordon, T.; Casstelli, W. P.; Hjortland, M. C.; Kannel, W. B.; Dawber, T. R. High density lipoproteins as a protective factor against coronary heart disease, Am. J. Med. 1977, 62, 707-714.).

SMILES | % Fall in blood glucose levels 6 days (db/db mice [1]) | % Fall in blood glucose levels 10 days (db/db mice [1]) [%] | lowering of blood glucose in db/db mice (db/db mice [1]; summary statement) | % Fall in lipid levels HDL (db/db mice [2]) | % Fall in lipid levels Chol. (db/db mice [2]) [%] | % Fall in lipid levels TG (db/db mice [2])
O=C1NC(=O)/C(=C\c2ccc(OCCCCCOc3cccc(C(=O)/C=C/c4ccc5c(c4)OCO5)c3)cc2)S1 [Compound 46, 3,4-Methylenedioxy-3′-{5-[4-(thiazolidin-2,4-dione-5-ylidinemethyl)-phenoxy]-pentyloxy}-chalcone] | 1.76% | 23.1 | significant lowering of blood glucose | 21.4% | 18.9 | 6.76%
CC(C)(C)NCC(O)COc1ccc(C(=O)/C=C/c2ccc3c(c2)OCO3)cc1 (stereo not shown) [Compound 34, 4′-[^3-tert-Butylamino-2-hydroxy-propoxy]-3,4-methylenedioxy-chalcone] | NIL | 32.0 |  | +1.76% | 40.3 | +7.44%
COc1ccc(/C=C/C(=O)c2ccc(OCC(O)CN3CCN(c4ccccc4)CC3)cc2)cc1OC (stereo not shown) [Compound 18, 3,4-Dimethoxy-4′-[2-hydroxy-3-(4-phenylpiperazin-1-yl)-propoxy]-chalcone] | 29.9% | 18.9 |  | 11.8% | 1.36 | +5.20%

Reference: US7807712B2, “Oxy substituted chalcones as antihyperglycemic and antidyslipidemic agents” (priority 2004, dated 2010)
